From patent US7259140B2, “Heparin-binding peptides and uses thereof” (Thomas Jefferson University, priority 2003, dated 2007)

Columns and labels:
[1] = system: anti-Factor Xa Activity of the Low Molecular Weight Heparin Lovenox ®; assay: Anti-Factor Xa assay (Stachrom Heparin kit): neutralization of Lovenox in citrate or plasma in vitro; assay type: biochemical, human; conditions: for Lovenox ® Neutralized: Lovenox 0.7 U/ml; for anti-LMWH effect in citrate compared with plasma: Table 2A
Description: The ability of peptides such as (ARKKAAKA)3VLVLVLVL (SEQ ID NO:5) to neutralize the anti-Factor Xa activity of UFH and LMWH in vitro was tested using the Stachrom Heparin kit (Diagnostica Stago), a standard hematology laboratory assay used to measure the anti-Factor Xa activity of heparin. The assay was performed using the low molecular weight heparin enoxaparin sodium (Lovenox®, Aventis Pharmaceuticals, Inc.), unfractionated heparin (UFH), or the non-heparin glycosaminoglycan danaparoid sodium (Orgaran®, Organon Inc., West Orange, N.J.) in 0.32% citrate or in plasma anticoagulated with 0.32% citrate. Enoxaparin is commonly used clinically as a low molecular weight heparin (LMWH). Danaparoid is commonly used clinically as a non-heparin glycosaminoglycan anticoagulant. Currently, the only FDA approved drug to target UFH is protamine, which is not effective in vivo against LMWH or a non-heparin glycosaminoglycan such as danaparoid. Buffer and ATIII are added to form the heparin/ATIII complex, peptide is added, then Factor Xa, reporter dye substrate for Factor Xa activity, and stop solution, and the dye concentration is read at 405 nm. The absorbance of the dye increases with increasing Factor Xa activity, and thus is inversely proportional to the heparin (anti-Factor Xa activity) concentration. Peptides were tested in plasma obtained from three volunteers (A, B, and C). Platelet function inhibitors PG12 and theophylline were added to the blood immediately upon collection.
Results. […] (ARKKAAKA)3VLVLVLVL (SEQ ID NO:5) and VLVL(ARKKAAKA)3ARKKCAKA (SEQ ID NO:38) were able to neutralize about 0.4 U/ml anti-Factor Xa activity of LMWH at a concentration of 12 μg/ml, which would be an effective dose for patients. (AKKARA)6 (SEQ ID […]), (ARKKAAKA)4 (SEQ ID NO:31) and (ARKKAAKA)3ARKKCAKA […] 0.3-0.35 U/ml. In contrast, 12 μg protamine only neutralized about 0.25 U/ml of LMWH under these conditions.

[2] = system: Lovenox ® Activity in Blood from Patients Treated with Lovenox ®; assay: Neutralizing Lovenox activity in blood from patients treated with Lovenox (anti-Factor Xa assay); assay type: biochemical, human; conditions: for Lovenox ® Neutralized: Peptide 12 μg/ml
Description: Blood was obtained from volunteers who were being treated with Lovenox® for their medical conditions after obtaining signatures on informed consent forms as approved by the Institutional Review Board. The assays to test neutralization of Lovendx® were performed as described for Table 2. A dose response from 1-60 μg/ml was evaluated as in Table 2.
The dose response pattern for the effective peptides was similar to the dose response in control plasma to which Lovenox® had been added. Each data point represents the mean and standard deviation of triplicate analyses on the same sample of blood from each patient.

[3] = blood of Lovenox-treated Patient Number 1
[4] = blood of Lovenox-treated Patient Number 2
[5] = blood of Lovenox-treated Patient Number 3
[6] = blood of Lovenox-treated Patient Number 4
[7] = blood of Lovenox-treated Patient Number 5
[8] = blood of Lovenox-treated Patient Number 8
[9] = blood of Lovenox-treated Patient Number 9
[10] = blood of Lovenox-treated Patient Number 10
[11] = blood of Lovenox-treated Patient Number 11

| Substance | Lovenox ® Neutralized ([1]; 1 μg/ml Peptide, A Plasma) | Lovenox ® Neutralized ([1]; 1 μg/ml Peptide, B Plasma) | Lovenox ® Neutralized ([1]; 1 μg/ml Peptide, C Plasma) | Lovenox ® Neutralized ([1]; 1 μg/ml Peptide, Citrate) | Lovenox ® Neutralized ([1]; 6 μg/ml Peptide, A Plasma) | Lovenox ® Neutralized ([1]; 6 μg/ml Peptide, B Plasma) | Lovenox ® Neutralized ([1]; 6 μg/ml Peptide, C Plasma) | Lovenox ® Neutralized ([1]; 6 μg/ml Peptide, Citrate) | Lovenox ® Neutralized ([1]; 12 μg/ml Peptide, A Plasma) | Lovenox ® Neutralized ([1]; 12 μg/ml Peptide, B Plasma) | Lovenox ® Neutralized ([1]; 12 μg/ml Peptide, C Plasma) | Lovenox ® Neutralized ([1]; 12 μg/ml Peptide, Citrate) | Lovenox ® Neutralized ([1]; 60 μg/ml Peptide, A Plasma) | Lovenox ® Neutralized ([1]; 60 μg/ml Peptide, B Plasma) | Lovenox ® Neutralized ([1]; 60 μg/ml Peptide, C Plasma) | Lovenox ® Neutralized ([1]; 60 μg/ml Peptide, Citrate) | Lovenox ® Neutralized ([1]; 120 μg/ml Peptide, A Plasma) | Lovenox ® Neutralized ([1]; 120 μg/ml Peptide, B Plasma) | Lovenox ® Neutralized ([1]; 120 μg/ml Peptide, C Plasma) | Lovenox ® Neutralized ([1]; 120 μg/ml Peptide, Citrate) | other results |
| --- | --- | --- | --- | --- | --- | --- | --- | --- | --- | --- | --- | --- | --- | --- | --- | --- | --- | --- | --- | --- | --- |
| ARKKAAKAARKKAAKAARKKAAKAVLVLVL [(ARKKAAKA)3VLVLVL] | 0.070 ± .036 U/ml | 0.030 ± 0.020 U/ml | 0.005 + 0.007 U/ml | 0.064 ± .046 U/ml | 0.250 ± .012 U/ml | 0.234 ± 0.032 U/ml | 0.153 ± 0.031 U/ml | 0.298 ± .049 U/ml | 0.241 ± .076 U/ml | 0.247 ± 0.031 U/ml | 0.276 ± 0.033 U/ml | 0.457 ± .016 U/ml | 0.453 ± .029 U/ml | 0.474 ± 0.011 U/ml | 0.491 ± 0.029 U/ml | 0.479 ± .006 U/ml | 0.457 ± .010 U/ml | 0.496 ± 0.028 U/ml | 0.471 ± 0.013 U/ml | 0.516 ± .065 U/ml | anti-LMWH effect in citrate compared with plasma [1]: greater anti-LMWH effect in citrate than in plasma; Lovenox ® Neutralized [2, 3]: 0.016 U/ml; Lovenox ® Neutralized [2, 4]: 0.030 U/ml; Lovenox ® Neutralized [2, 5]: 0.043 U/ml; Lovenox ® Neutralized [2, 6]: 0.122 U/ml; Lovenox ® Neutralized [2, 7]: 0.109 U/ml; Lovenox ® Neutralized [2, 8]: 0.104 U/ml; Lovenox ® Neutralized [2, 9]: 0.187 U/ml; Lovenox ® Neutralized [2, 10]: 0.133 U/ml; Lovenox ® Neutralized [2, 11]: 0.142 U/ml |
| Protamine [reference compound] | 0.038 ± 0.036 U/ml | 0.086 ± 0.004 U/ml | 0.070 ± 0.050 U/ml | 0.050 ± 0.016 U/ml | 0.177 ± 0.033 U/ml | 0.200 ± 0.026 U/ml | 0.232 ± 0.065 U/ml | 0.256 ± 0.060 U/ml | 0.232 ± 0.067 U/ml | 0.249 ± 0.039 U/ml | 0.285 ± 0.041 U/ml | 0.591 ± 0.032 U/ml | 0.515 ± 0.066 U/ml | 0.574 ± 0.022 U/ml | 0.465 ± 0.021 U/ml | 0.570 ± 0.033 U/ml | 0.562 ± 0.035 U/ml | 0.592 ± 0.037 U/ml | 0.499 ± 0.16 U/ml | 0.480 ± 0.058 U/ml | anti-Factor Xa activity of LMWH neutralized ([1]; 12 μg/ml, plasma): about 0.25 U/ml; anti-LMWH effect in citrate compared with plasma [1]: greater anti-LMWH effect in citrate than in plasma; effectiveness in neutralizing Lovenox in blood of patients [2]: neutralized Lovenox® in the blood of just one patient; Lovenox ® Neutralized [2, 3]: 0.016 U/ml; Lovenox ® Neutralized [2, 4]: 0.022 U/ml; Lovenox ® Neutralized [2, 5]: 0 U/ml; Lovenox ® Neutralized [2, 6]: 0.092 U/ml; Lovenox ® Neutralized [2, 7]: 0.013 U/ml; Lovenox ® Neutralized [2, 8]: 0.018 U/ml; Lovenox ® Neutralized [2, 9]: 0.244 U/ml; Lovenox ® Neutralized [2, 10]: 0.069 U/ml; Lovenox ® Neutralized [2, 11]: 0.021 U/ml |
